The values below come from PubChem BioAssay (NCI).

Some test systems named below: A498 renal; NCI/ADR-RES ovarian; SF-268 CNS; HCT-116 colon; HOP-62 NSCLC; HT29 colon; SK-MEL-2 melanoma; SNB-19 CNS; UACC-257 melanoma; MCF7 breast.
Holding throughout (assay): inhibition of tumour cell growth, NCI panel, 48 h

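Results reflect a 48-hour exposure of cells in 96-well plates to compound at five concentrations. Here, GI50 denotes the concentration required for 50% inhibition of growth. TGI: concentration producing complete growth inhibition.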

Regarding `CCCC[N+](CCCC)=c1ccc2nc3c(C)cc(N(CC)CC)cc3sc-2c1`, the GI50 was 0.236 µM in the experiment on A498 renal, 0.327 µM with NCI/ADR-RES ovarian and 0.339 µM with SF-268 CNS. Further, the TGI turned out to be 4.43 µM with A498 renal, 1.84 µM in the experiment on NCI/ADR-RES ovarian and 1.78 µM in the experiment on SF-268 CNS.
`NNC(=S)N/N=C(/C(=O)Nc1cc(Cl)ccc1Cl)C1C(=O)Nc2ccccc2S1=O` (stereo not given): the TGI in the experiment on A498 renal, in the experiment on HCT-116 colon, with HOP-62 NSCLC, in the experiment on HT29 colon, with SF-268 CNS and with SK-MEL-2 melanoma was more than 100 µM in each case. Further, the TGI in the experiment with SNB-19 CNS and with UACC-257 melanoma was more than 100 µM each time.
Consider `O=C1C2=Nc3ccccc3C(O)N2c2ccccc21` (stereo not given), for which the TGI in the experiment with A498 renal was 90.9 µM; in the experiment with HCT-116 colon it was more than 100 µM; in the experiment on HOP-62 NSCLC, more than 100 µM; with HT29 colon, more than 100 µM; in the experiment on MCF7 breast, more than 100 µM; in the experiment on NCI/ADR-RES ovarian, more than 100 µM. Besides, the TGI is more than 100 µM with SF-268 CNS, more than 100 µM with SNB-19 CNS and 16.5 µM in the experiment on UACC-257 melanoma.
Consider `Oc1ccc(O)c(-c2cc(-c3ccccc3)nn2-c2ccccc2)c1`, for which the GI50 was 9.71 µM in the experiment with HCT-116 colon; 16.8 µM with HOP-62 NSCLC; 73.9 µM in the experiment with HT29 colon; 6.55 µM in the experiment with MCF7 breast; 11.5 µM in the experiment on NCI/ADR-RES ovarian; 16.4 µM in the experiment on SF-268 CNS. For the same compound, the figures for the GI50 in the experiment on SK-MEL-2 melanoma, in the experiment with SNB-19 CNS and in the experiment on UACC-257 melanoma were 34 µM, 23.9 µM and 18 µM, respectively. Besides, the TGI in the experiment on HCT-116 colon was 21.8 µM; in the experiment on HOP-62 NSCLC it was 32.3 µM; in the experiment on HT29 colon, more than 100 µM; with MCF7 breast, more than 100 µM; in the experiment with NCI/ADR-RES ovarian, 29.7 µM; in the experiment on SF-268 CNS it was 64.8 µM. In addition, the TGI was more than 100 µM with SK-MEL-2 melanoma, more than 100 µM in the experiment on SNB-19 CNS and 52.1 µM in the experiment on UACC-257 melanoma.
Take `C[C@]12CCc3nonc3C1CC[C@@H]1C2CC[C@]2(C)NC(=O)CCC12` (stereo not given in full): the TGI in the experiment with A498 renal, with HCT-116 colon, in the experiment with HOP-62 NSCLC, with HT29 colon, in the experiment with SF-268 CNS and with SK-MEL-2 melanoma was more than 100 µM in each case. Further, the TGI with SNB-19 CNS and with UACC-257 melanoma was more than 100 µM each time.
`O=C1OCCC1C(O)C1c2ccccc2-c2ccccc21` (stereo not given): the TGI in the experiment on A498 renal, in the experiment on HCT-116 colon, in the experiment on HOP-62 NSCLC, in the experiment with HT29 colon, in the experiment with SF-268 CNS and in the experiment with SK-MEL-2 melanoma was more than 100 µM each time. Besides, the TGI with SNB-19 CNS and in the experiment on UACC-257 melanoma was more than 100 µM each time.
For the compound `CN[C@@H](C)[C@@H](N)c1ccccc1`, the TGI in the experiment with A498 renal, in the experiment on HCT-116 colon, in the experiment with HT29 colon, in the experiment with SNB-19 CNS and in the experiment on UACC-257 melanoma was more than 100 µM throughout.
For the compound `O=C1c2ccccc2C(=O)c2c(NCCNCCO)ccc(O)c21`, the TGI with A498 renal was determined as 19.4 µM; in the experiment with HCT-116 colon, 12.9 µM; with HOP-62 NSCLC it was 14.5 µM; with HT29 colon it was 10.2 µM; in the experiment on SF-268 CNS, 13.1 µM; in the experiment with SK-MEL-2 melanoma, 14.7 µM. The TGI with SNB-19 CNS was determined as 14.2 µM; with UACC-257 melanoma it was 13.5 µM.
On to `O=c1cccccc1NCCCCCCNc1cccccc1=O`, for which the TGI in the experiment on A498 renal, with HCT-116 colon, in the experiment on HOP-62 NSCLC, in the experiment with HT29 colon, in the experiment on SF-268 CNS and with SK-MEL-2 melanoma was more than 100 µM throughout. Moreover, the TGI with SNB-19 CNS and in the experiment with UACC-257 melanoma was more than 100 µM each time.
As for `CC(=O)O[C@]1(C)OC(=O)[C@@H](C)N1[N+](=O)[O-]`, the TGI in the experiment with A498 renal, in the experiment with HCT-116 colon, with HOP-62 NSCLC, in the experiment with HT29 colon, with SK-MEL-2 melanoma and with SNB-19 CNS was more than 100 µM in each case. Moreover, the TGI with UACC-257 melanoma is more than 100 µM.
In the case of `OCC1OC(OCC(O)C(O)C(O)C(/C=N/Nc2ccccc2)=N/Nc2ccccc2)C(O)C(O)C1O` (stereo not given), the TGI with HCT-116 colon, with HOP-62 NSCLC, with HT29 colon, with MCF7 breast, with NCI/ADR-RES ovarian and in the experiment with SF-268 CNS was more than 100 µM in each case. For the same compound, the TGI with SNB-19 CNS and in the experiment on UACC-257 melanoma was more than 100 µM each time.
On to `CC1(C)CCc2cc3c(cc2O1)OCC1c2cc4c(cc2OC31)OCO4` (stereo not given), for which the TGI in the experiment on A498 renal, in the experiment on HCT-116 colon, with HOP-62 NSCLC, in the experiment on HT29 colon, with SF-268 CNS and in the experiment with SNB-19 CNS was more than 100 µM throughout. Moreover, the TGI with UACC-257 melanoma was more than 100 µM.
As to `COc1ccc(N=Nc2c(-c3ccccc3)nn(C(=O)CC(=O)Nc3cccc(Cl)c3)c2-c2ccccc2)cc1`, the TGI in the experiment on A498 renal, in the experiment with HCT-116 colon, with HOP-62 NSCLC, in the experiment on HT29 colon, in the experiment with SF-268 CNS and in the experiment on SK-MEL-2 melanoma was more than 100 µM throughout. The TGI in the experiment with SNB-19 CNS and in the experiment with UACC-257 melanoma was more than 100 µM each time.
As for `Cc1ccc(Nc2n[nH]c(=S)s2)cc1`, the TGI in the experiment with A498 renal, in the experiment on HCT-116 colon, with HOP-62 NSCLC, with HT29 colon, in the experiment with MCF7 breast and with NCI/ADR-RES ovarian was more than 100 µM throughout. Moreover, the TGI in the experiment with SF-268 CNS, with SNB-19 CNS and in the experiment on UACC-257 melanoma was more than 100 µM in each case.
For the compound `O=C(c1cc2ccccc2o1)N(Cc1ccccc1)c1ccccc1`, the TGI with A498 renal was 89.1 µM; in the experiment with HCT-116 colon it was 31.9 µM; with HOP-62 NSCLC it was 71.4 µM; in the experiment with HT29 colon, 66 µM; with SF-268 CNS it was more than 100 µM; in the experiment on SK-MEL-2 melanoma it was more than 100 µM. Moreover, the TGI was more than 100 µM in the experiment with SNB-19 CNS and 41.4 µM in the experiment on UACC-257 melanoma.
